Experimental data published in patent publication US11149054B2, “Oxysterols and methods of use thereof” (Sage Therapeutics, Inc., priority 2016, dated 2021).
pEC50: −log10 of the molar value. Where two headings read alike, the source gives them in different places.

Experiments:
[1] = target: GluN2B glutamate receptors (Homo sapiens (Human), UniProt Q05586+Q13224); test: Whole-cell patch clamp of mammalian cells (Ionworks Barracuda), positive allosteric modulation, GluN2B; assay type: cell-based; conditions: for Emax: read-out: Avg Emax 2B (%)
GluN2B glutamate receptors, sequence (Q13224 27-1484, other chains not shown): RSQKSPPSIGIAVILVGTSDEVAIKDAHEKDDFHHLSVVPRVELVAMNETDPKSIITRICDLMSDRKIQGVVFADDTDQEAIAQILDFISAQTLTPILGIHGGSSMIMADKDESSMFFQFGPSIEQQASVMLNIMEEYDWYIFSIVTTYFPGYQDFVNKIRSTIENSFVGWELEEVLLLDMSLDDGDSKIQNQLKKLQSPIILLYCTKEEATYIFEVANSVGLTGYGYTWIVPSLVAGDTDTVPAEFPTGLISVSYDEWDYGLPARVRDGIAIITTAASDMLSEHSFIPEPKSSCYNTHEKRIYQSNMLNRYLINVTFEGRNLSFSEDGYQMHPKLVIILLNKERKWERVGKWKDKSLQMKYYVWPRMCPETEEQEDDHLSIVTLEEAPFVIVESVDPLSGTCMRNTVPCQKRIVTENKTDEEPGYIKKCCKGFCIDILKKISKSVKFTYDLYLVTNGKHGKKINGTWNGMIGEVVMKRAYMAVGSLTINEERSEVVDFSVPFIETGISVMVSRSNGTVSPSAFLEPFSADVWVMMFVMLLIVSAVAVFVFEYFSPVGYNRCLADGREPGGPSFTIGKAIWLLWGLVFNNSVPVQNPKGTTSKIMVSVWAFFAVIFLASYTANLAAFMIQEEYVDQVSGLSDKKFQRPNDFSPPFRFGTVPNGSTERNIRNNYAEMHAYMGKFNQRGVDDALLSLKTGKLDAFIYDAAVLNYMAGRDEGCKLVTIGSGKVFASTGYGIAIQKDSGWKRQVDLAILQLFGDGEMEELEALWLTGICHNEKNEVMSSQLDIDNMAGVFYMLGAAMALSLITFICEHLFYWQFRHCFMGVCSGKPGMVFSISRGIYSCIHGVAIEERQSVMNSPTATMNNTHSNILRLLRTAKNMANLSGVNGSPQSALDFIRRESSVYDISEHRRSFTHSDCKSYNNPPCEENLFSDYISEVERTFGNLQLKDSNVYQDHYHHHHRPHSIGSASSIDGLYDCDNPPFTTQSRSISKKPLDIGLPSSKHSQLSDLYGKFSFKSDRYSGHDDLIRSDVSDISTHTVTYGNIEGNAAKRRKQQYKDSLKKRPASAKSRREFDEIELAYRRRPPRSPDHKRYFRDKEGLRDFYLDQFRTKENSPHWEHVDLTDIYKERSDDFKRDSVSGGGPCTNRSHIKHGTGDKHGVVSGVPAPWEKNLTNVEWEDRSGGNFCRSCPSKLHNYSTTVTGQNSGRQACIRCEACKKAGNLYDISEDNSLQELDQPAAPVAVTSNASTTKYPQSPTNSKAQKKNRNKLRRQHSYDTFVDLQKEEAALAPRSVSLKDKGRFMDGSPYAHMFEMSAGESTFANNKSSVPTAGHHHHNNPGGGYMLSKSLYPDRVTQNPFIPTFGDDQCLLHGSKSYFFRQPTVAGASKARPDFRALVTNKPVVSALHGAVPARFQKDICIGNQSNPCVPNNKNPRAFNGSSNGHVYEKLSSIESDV
Method: (§1) The measurements were performed using Ion Works Barracuda platform following this procedure:
(§2) Electrophysiological Procedures:
(§3) • a) Intracellular solution (mM): 50 mM CsCl, 90 mM CsF, 2 mM MgCl2, 5 mM EGTA, 10 mM HEPES. Adjust to pH 7.2 with CsOH. • b) Extracellular solution, HB-PS (composition in mM): NaCl, 137; KCl, 1.0; CaCl2), 5; HEPES, 10; Glucose, 10; pH adjusted to 7.4 with NaOH (refrigerated until use). • c) Holding potential: −70 mV, potential during agonist/PAM application: −40 mV. Recording Procedure: • a) Extracellular buffer will be loaded into the PPC plate wells (11 μL per well). Cell suspension will be pipetted into the wells (9 μL per well) of the PPC planar electrode. • b) Whole-cell recording configuration will be established via patch perforation with membrane currents recorded by on-board patch clamp amplifiers. • c) Two recordings (scans) will be performed. First, during pre-application of test article alone (duration of pre-application—[…]) and second, during test articles and agonist (EC20 L-glutamate and 30 μM glycine) co-application to detect positive modulatory effects of the test article. […] Potentiating Effect of Positive Allosteric Modulators (PAM) on the Channel
(§4) PAM concentration-response data will be fitted to an equation of the form: % Activation=% L-glutamate EC20+{(% MAX−% L-glutamate EC20)/[1+([Test]/EC50)^N]}, where [Test] will be the concentration of PAM (test article), EC50 will be the concentration of PAM producing half-maximal activation, N will be the Hill coefficient, % L-glutamate EC20 will be the percentage of the current Elicited with L-glutamate EC20, % MAX is the percentage of the current activated with the highest dose of PAM co-admitted with L-glutamate EC20 and % Activation will be the percentage of the current elicited with L-glutamate EC10-30 at each PAM concentration. The maximal amplitude of the evoked currents are measured and defined as Peak Current Amplitude (PCA).

[2] = target: GlunN1/GluN2A glutamate receptors (Homo sapiens (Human), UniProt Q05586+Q12879); test: Whole-cell patch clamp of mammalian cells (Ionworks Barracuda), positive allosteric modulation, GluN1/GluN2A; assay type: cell-based
GlunN1/GluN2A glutamate receptors, sequence (Q12879 23-1464, other chains not shown): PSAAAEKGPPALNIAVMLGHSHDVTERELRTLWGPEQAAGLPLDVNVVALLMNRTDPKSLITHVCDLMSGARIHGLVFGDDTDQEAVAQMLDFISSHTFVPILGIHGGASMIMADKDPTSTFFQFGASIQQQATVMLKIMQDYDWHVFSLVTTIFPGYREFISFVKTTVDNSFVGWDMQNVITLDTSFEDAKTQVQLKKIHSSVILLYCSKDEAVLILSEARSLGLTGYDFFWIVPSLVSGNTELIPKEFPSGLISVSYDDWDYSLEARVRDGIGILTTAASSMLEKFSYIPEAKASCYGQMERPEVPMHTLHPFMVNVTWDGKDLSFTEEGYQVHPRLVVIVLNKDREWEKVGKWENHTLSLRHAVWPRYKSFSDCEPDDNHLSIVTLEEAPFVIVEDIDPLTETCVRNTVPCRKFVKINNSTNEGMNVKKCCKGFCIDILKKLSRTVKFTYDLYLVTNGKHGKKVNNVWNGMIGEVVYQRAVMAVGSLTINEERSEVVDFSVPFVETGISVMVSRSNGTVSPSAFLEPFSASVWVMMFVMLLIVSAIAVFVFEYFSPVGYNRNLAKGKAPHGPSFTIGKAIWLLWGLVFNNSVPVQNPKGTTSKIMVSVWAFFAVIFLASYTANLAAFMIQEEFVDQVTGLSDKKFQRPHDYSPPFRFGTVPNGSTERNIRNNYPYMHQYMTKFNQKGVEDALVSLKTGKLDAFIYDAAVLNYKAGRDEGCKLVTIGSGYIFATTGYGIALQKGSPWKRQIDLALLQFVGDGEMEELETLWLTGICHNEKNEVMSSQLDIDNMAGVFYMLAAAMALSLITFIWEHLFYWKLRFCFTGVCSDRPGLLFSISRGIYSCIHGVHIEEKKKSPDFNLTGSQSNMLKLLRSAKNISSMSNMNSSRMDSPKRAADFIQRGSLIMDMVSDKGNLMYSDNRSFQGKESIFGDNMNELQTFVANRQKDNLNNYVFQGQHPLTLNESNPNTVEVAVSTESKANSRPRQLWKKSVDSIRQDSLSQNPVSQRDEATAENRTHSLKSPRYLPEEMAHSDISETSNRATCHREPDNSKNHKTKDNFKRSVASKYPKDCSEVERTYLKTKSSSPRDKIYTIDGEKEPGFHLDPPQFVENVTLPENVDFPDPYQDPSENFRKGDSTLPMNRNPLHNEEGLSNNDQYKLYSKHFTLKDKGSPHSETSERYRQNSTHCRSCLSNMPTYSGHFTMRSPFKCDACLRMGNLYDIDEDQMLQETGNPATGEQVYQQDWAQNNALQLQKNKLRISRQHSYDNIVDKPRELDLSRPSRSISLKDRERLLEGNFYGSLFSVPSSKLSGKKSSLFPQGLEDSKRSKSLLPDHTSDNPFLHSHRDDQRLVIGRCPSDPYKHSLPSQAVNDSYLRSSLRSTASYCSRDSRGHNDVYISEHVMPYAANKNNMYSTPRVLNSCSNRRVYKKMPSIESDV
Method: as §1, §2, §3, §4

[3] = % potentiation of current elicited with EC20 L-glutamate and 30 μM glycine
[4] = HEK293 cells, % potentiation of current elicited with EC20 L-glutamate and 30 μM glycine, read-out: Avg Emax 2A (%)
[5] = HEK293, read-out: Avg Emax 2A (%)
[6] = co-application with EC20 L-glutamate and 30 μM glycine, 8-point concentration-response, read-out: Avg EC50 2B
[7] = HEK293 cells, co-application with EC20 L-glutamate and 30 μM glycine, 8-point concentration-response, read-out: Avg EC50 2A

Row | SMILES | Emax [1, 3] | Emax [2, 4] | pEC50 [1] | pEC50 [2] | Emax [1] | Emax [2, 5] | pEC50 [1, 6] | pEC50 [2, 7]
1 | C[C@H](CCC[C@@H](C)O)[C@H]1CC[C@H]2[C@@H]3CC[C@H]4C[C@](O)(C(F)(F)F)CC[C@]4(C)[C@H]3CC[C@]12C [Compound 112] | 151% | 92.6% |  |  |  |  |  | 
2 | C[C@H](CC[C@@H](O)C(F)(F)F)[C@H]1CC[C@H]2[C@@H]3CC=C4C[C@](O)(C(F)(F)F)CC[C@]4(C)[C@H]3CC[C@]12C [Compound 3149] |  |  | 7.22 | 7.16 |  |  |  | 
3 | CC[C@]1(O)CC[C@@]2(C)C(=CC[C@H]3[C@@H]4CC[C@H]([C@H](C)CC[C@@H](O)c5ccc(F)cc5)[C@@]4(C)CC[C@@H]32)C1 [Compound 7147] |  |  | 7.04 |  | 242% | 200% |  | 
4 | C[C@H](CCC(O)c1ccccc1)[C@H]1CC[C@H]2[C@@H]3CC=C4C[C@@](C)(O)CC[C@]4(C)[C@H]3CC[C@]12C (stereo partly drawn) [Compound 356] | 156% | 59.6% | 6.03 | 6.38 |  |  |  | 
5 | C[C@H](CC[C@]1(O)CCOC1)[C@H]1CC[C@H]2[C@@H]3CC[C@H]4C[C@](O)(C(F)(F)F)CC[C@]4(C)[C@H]3CC[C@]12C [Compound 2707] | 259% | 113% |  |  |  |  | 6.99 | 6.92
6 | CC[C@H](O)CCC[C@@H](C)[C@H]1CC[C@H]2[C@@H]3CC=C4C[C@](O)(CC)CC[C@@H]4[C@H]3CC[C@]12C [Compound 10949] |  |  |  |  | 147% | 97.4% |  | 
7 | C[C@H](CC[C@H](O)C(C)(C)C)[C@H]1CC[C@H]2[C@@H]3CC[C@H]4C[C@](O)(C(F)(F)F)CC[C@]4(C)[C@H]3CC[C@]12C [Compound 2184] |  |  | 7.10 | 7.18 |  |  |  | 
8 | CC[C@]1(O)CC[C@@]2(C)C(=CC[C@H]3[C@@H]4CC[C@H]([C@H](C)CC[C@@H](O)Cc5ccccc5)[C@@]4(C)CC[C@@H]32)C1 [Compound 6052] | 92.2% | 102% | 6.63 | 6.37 |  |  |  | 
9 | C[C@H](CCC1(O)CCCCC1)[C@H]1CC[C@H]2[C@@H]3CC[C@H]4C[C@](O)(C(F)(F)F)CC[C@]4(C)[C@H]3CC[C@]12C [Compound 4023] | 418% | 322% | 6.39 | 6.29 |  |  |  | 
10 | CC[C@]1(O)CC[C@H]2C(=CC[C@@H]3[C@@H]2CC[C@]2(C)[C@@H]([C@H](C)CCCC4(O)CCOCC4)CC[C@@H]32)C1 [Compound 10216] | 121% | 79.3% |  |  |  |  | 6.35 | 5.92
11 | CC[C@]1(O)CC[C@H]2C(=CC[C@@H]3[C@@H]2CC[C@]2(C)[C@@H]([C@H](C)CCCC(O)C(C)(C)C)CC[C@@H]32)C1 (stereo partly drawn) [Compound 10012] | 168% | 154% |  |  |  |  | 6.04 | 6.10
12 | C[C@H](CC[C@@H](O)C(F)(F)F)[C@H]1CC[C@H]2[C@@H]3CC[C@H]4C[C@](O)(C(F)(F)F)CC[C@]4(C)[C@H]3CC[C@]12C [Compound 5] | 455% | 619% | 6.58 | 6.74 |  |  |  | 
13 | CC[C@]1(O)CC[C@H]2[C@@H](CC[C@@H]3[C@@H]2CC[C@]2(C)[C@@H]([C@H](C)CCCC(C)(C)O)CC[C@@H]32)C1 [Compound 9670] | 213% | 154% | 6.66 | 6.44 |  |  |  | 
14 | CC[C@]1(O)CC[C@H]2C(=CC[C@@H]3[C@@H]2CC[C@]2(C)[C@@H]([C@H](C)CCC[C@@H](O)C(C)(C)C)CC[C@@H]32)C1 [Compound 10042] | 113% | 65.9% | 5.73 | < 5.00 |  |  |  | 
15 | C[C@H](CCCO)[C@H]1CC[C@H]2[C@@H]3CC[C@H]4C[C@](O)(C(F)(F)F)CC[C@]4(C)[C@H]3CC[C@]12C [Compound 2499] | 238% | 180% | 6.12 | 6.11 |  |  |  | 
16 | C[C@H](CCC1(O)CCC2(CC1)CC2)[C@H]1CC[C@H]2[C@@H]3CC[C@H]4C[C@](O)(C(F)(F)F)CC[C@]4(C)[C@H]3CC[C@]12C [Compound 4805] | 129% | 175% | 6.44 | 6.45 |  |  |  | 

Row | SMILES | Emax [1, 3] | Emax [2, 4] | pEC50 [1] | pEC50 [2] | Emax [1] | Emax [2, 5] | pEC50 [1, 6] | pEC50 [2, 7]
17 | CC(C)[C@H]1CC[C@](O)(CC[C@@H](C)[C@H]2CC[C@H]3[C@@H]4CC[C@H]5C[C@](O)(C(F)(F)F)CC[C@]5(C)[C@H]4CC[C@]23C)CC1 [Compound 4259] | 24.3% | -13.3% | < 5.00 | < 5.00 |  |  |  | 
18 | C[C@H](CCC1(O)CCC(F)(F)CC1)[C@H]1CC[C@H]2[C@@H]3CC=C4C[C@](O)(C(F)(F)F)CC[C@]4(C)[C@H]3CC[C@]12C [Compound 2392] |  |  | 7.32 | 6.98 |  |  |  | 
19 | C[C@H](CCC1(O)CCC(C)(C)CC1)[C@H]1CC[C@H]2[C@@H]3CC[C@H]4C[C@](O)(C(F)(F)F)CC[C@]4(C)[C@H]3CC[C@]12C [Compound E-2817] | 20.4% | 29.9% |  |  |  |  |  | 
20 | C[C@H](CCC(C)(O)c1ccccc1)[C@H]1CC[C@H]2[C@@H]3CC=C4C[C@@](C)(O)CC[C@]4(C)[C@H]3CC[C@]12C (stereo partly drawn) [Compound 456] |  |  |  |  | 74.8% | 53.4% |  | 
21 | C[C@H](CCCC(C)(C)O)[C@H]1CC[C@H]2[C@@H]3CC[C@H]4C[C@](O)(C(F)(F)F)CC[C@]4(C)[C@H]3CC[C@]12C [Compound 5116] | 214% | 185% |  |  |  |  | 6.88 | 6.99
22 | C[C@H](CCC1(O)CCC2(CC1)COC2)[C@H]1CC[C@H]2[C@@H]3CC[C@H]4C[C@](O)(C(F)(F)F)CC[C@]4(C)[C@H]3CC[C@]12C [Compound 5009] | 14.5% | 27.5% | < 5.00 | < 5.00 |  |  |  | 
23 | CC[C@]1(O)CC[C@@]2(C)C(=CC[C@H]3[C@@H]4CC[C@H]([C@H](C)CC[C@@H](O)c5ccc(C#N)cc5)[C@@]4(C)CC[C@@H]32)C1 (single isomer, unassigned) [Compound 6680] | 123% | 175% | 6.33 | 5.86 |  |  |  | 
24 | CC[C@]1(O)CC[C@H]2C(=CC[C@@H]3[C@@H]2CC[C@]2(C)[C@@H]([C@H](C)CCC[C@@H](O)C(C)C)CC[C@@H]32)C1 [Compound 10114] | 179% | 146% |  |  |  |  |  | 
25 | CC[C@@H](O)CC[C@@H](C)[C@H]1CC[C@H]2[C@@H]3CC=C4C[C@](O)(CC)CC[C@@H]4[C@H]3CC[C@]12C [Compound 8584] | 363% | 284% | 6.61 | 6.48 |  |  |  | 
26 | CC[C@]1(O)CC[C@H]2C(=CC[C@@H]3[C@@H]2CC[C@]2(C)[C@@H]([C@H](C)CCCC(C)(C)O)CC[C@@H]32)C1 [Compound 194] | 192% | 162% |  |  |  |  |  | 6.70
27 | C[C@H](CC[C@@]1(O)CCOC1)[C@H]1CC[C@H]2[C@@H]3CC=C4C[C@](O)(C(F)(F)F)CC[C@]4(C)[C@H]3CC[C@]12C [Compound 3495] |  |  |  |  | 146% | 107% |  | 
28 | C[C@H](CCC(O)(c1ccccc1)C(F)(F)F)[C@H]1CC[C@H]2[C@@H]3CC=C4C[C@@](C)(O)CC[C@]4(C)[C@H]3CC[C@]12C (stereo partly drawn) [Compound 559] | 373% | 204% |  |  |  |  |  | 
29 | CC[C@]1(O)CC[C@@]2(C)C(=CC[C@H]3[C@@H]4CC[C@H]([C@H](C)CCC(O)Cc5ccccc5)[C@@]4(C)CC[C@@H]32)C1 (stereo partly drawn) [Compound 6010] | 184% | 239% | 5.80 | 5.96 |  |  |  | 
30 | CC[C@]1(O)CC[C@@]2(C)C(=CC[C@H]3[C@@H]4CC[C@H]([C@H](C)CC[C@H](O)c5cccc(F)c5)[C@@]4(C)CC[C@@H]32)C1 [Compound 6896] | 402% | 216% | 5.78 | 6.28 |  |  |  | 
31 | CC[C@]1(O)CC[C@H]2C(=CC[C@@H]3[C@@H]2CC[C@]2(C)[C@@H]([C@H](C)CCC(O)C(C)(C)C)CC[C@@H]32)C1 (stereo partly drawn) [Compound 8361] |  |  | 6.87 | 7.06 | 309% | 252% |  | 
